For two compounds, enrichment ratioavg and competition ratioavg results are on record in patent publication US11226337B2, “Chemoproteomic profiling of protein electrophilic and oxidative post-translational modifications” (Zenagem, LLC, priority 2017, dated 2022).

The target in assay [1] is T1, LEPRE1 Prolyl 3hydroxylase 1 (Q32P28) (Homo sapiens, UniProt Q32P28).
T1 construct: In Situ Labelling of Cells with Hydrazine Probes for MS Experiments; endogenous in cells
T1 sequence (Q32P28 23-736): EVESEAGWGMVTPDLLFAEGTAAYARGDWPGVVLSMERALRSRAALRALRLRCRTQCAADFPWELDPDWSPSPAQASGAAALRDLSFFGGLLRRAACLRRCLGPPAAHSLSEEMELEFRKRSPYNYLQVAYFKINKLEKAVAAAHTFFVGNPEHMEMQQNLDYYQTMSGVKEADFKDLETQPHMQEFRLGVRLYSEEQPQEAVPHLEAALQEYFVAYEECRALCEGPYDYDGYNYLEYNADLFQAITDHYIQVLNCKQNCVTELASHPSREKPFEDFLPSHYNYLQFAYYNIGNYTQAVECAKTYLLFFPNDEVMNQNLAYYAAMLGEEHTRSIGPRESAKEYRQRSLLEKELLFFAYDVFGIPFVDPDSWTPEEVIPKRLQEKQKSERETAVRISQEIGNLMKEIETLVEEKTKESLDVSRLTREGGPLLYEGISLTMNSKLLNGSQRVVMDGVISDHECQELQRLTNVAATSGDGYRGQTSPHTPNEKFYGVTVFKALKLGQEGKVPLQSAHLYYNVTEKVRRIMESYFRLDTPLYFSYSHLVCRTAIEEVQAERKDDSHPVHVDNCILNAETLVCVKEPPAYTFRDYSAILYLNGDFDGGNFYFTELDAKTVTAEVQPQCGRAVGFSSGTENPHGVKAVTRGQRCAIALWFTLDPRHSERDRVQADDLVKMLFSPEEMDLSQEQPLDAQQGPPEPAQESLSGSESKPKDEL
The assay can be described thus: SILAC RP-ABPP. It counts as cell-based. The note with it: SILAC H/L, MDA-MB-231. On the procedure:
(§1) For MS-based experiments, labelling was performed in a similar manner as described above in Example 2, maintaining the same concentrations of probes. Modifications to this protocol included using isotopically ‘light’ and ‘heavy’ SILAC cells that were also grown to near complete confluence prior to treatment. Isotopically light cells were treated with the non-clickable hydrazine probe (at the same concentration as the probe in ‘enrichment’ experiments) or the probe in the presence of 10-fold excess non-clickable hydrazine probe as a competitor (in ‘competition’ experiments). Isotopically heavy cells were treated with the probe for both types of experiments. These treatments were performed in non-SILAC media. Following treatments, cells were washed with cold PBS to remove the probe-containing media, harvested by scraping, collected by centrifugation (1,400 g, 3 min, 4° C.), washed again by resuspension in cold PBS and frozen as pellets at −80° C. until use.
(§2) The fractionated equimolar mixture of heavy and light soluble proteomes (1-1.5 mg) was diluted to 1 mL in PBS. Click reactions were scaled accordingly (except for biotin-azide) to maintain final concentrations of 0.1 mM TBTA, 1 mM CuSO4, 100 μM biotin-azide (10 mM in DMSO) and 1 mM TCEP. The mixture was vortexed and placed on a rotator at ambient temperature for 1 hour. Sequential addition of and mixture with pre-chilled methanol (MeOH, 2 mL), chloroform (CHCl3, 0.5 mL) and PBS (1 mL) on ice quenched the reaction. The precipitated proteome was centrifuged (5,000 g, 10 min, 4° C.) to fractionate the protein interphase from the organic and aqueous solvent layers. The protein pellet was washed with cold 1:1 MeOH:CHCl3 (3×1 mL), mildly sonicated in cold 4:1 MeOH:CHCl3 (2.5 mL) and pelleted once more by centrifugation (5,000 g, 10 min, 4° C.) to ensure click reagents were efficiently removed.
(§3) Heavy and light parent ion chromatograms associated with successfully identified peptides were extracted and compared using CIMAGE software as previously described^69. At least one ion of a co-eluting heavy-light pair must be accurately identified from a fragmentation event that occurred within the retention time window (±10 min) of parent ion elution. To ensure that the correct pair of peaks is quantified, chromatograms are extracted within a 10 ppm error tolerance of the predicted m/z, the signal-to-noise ratio must be >2.5 and the ‘co-elution correlation score’ and ‘envelope correlation score’ must have R^2 values ≥0.8. In addition, peptides detected as ‘singletons,’ where only the heavy ion of a peptide pair was identified, but for which passed all other filtering parameters, are given a default assigned ratio of ‘20,’ which is defined as any measured ratio that is ≥20.
(§4) To further eliminate false positives and any stochastic variability in the data, protein ratios were then determined by the median peptide ratio derived from three or more unique quantified peptides. Protein ratios that complied with these criteria from a single experiment were then averaged with ratios acquired from ≥3 replicates to provide final values for each type of experiment in both cell lines with both probes. […] Most importantly, there are no robustly measured ratios for proteins identified as probe 1 targets that had measured ratios of ˜1 with probe 2. Probe targets in HEK293T and MDA-MB-231 cells represent data combined from ≥3 independent biological replicates with each cell type performed with several independent batches of synthesized probes over a period of almost two years. […]

The target of assay [2] is T2, SCPEP1 Retinoidinducible serine (Q9HB40) (Homo sapiens, UniProt Q9HB40).
T2 construct: In Situ Labelling of Cells with Hydrazine Probes for MS Experiments; endogenous in cells; host or cells: HEK293T and MDA-MB-231
T2 sequence (Q9HB40 27-452): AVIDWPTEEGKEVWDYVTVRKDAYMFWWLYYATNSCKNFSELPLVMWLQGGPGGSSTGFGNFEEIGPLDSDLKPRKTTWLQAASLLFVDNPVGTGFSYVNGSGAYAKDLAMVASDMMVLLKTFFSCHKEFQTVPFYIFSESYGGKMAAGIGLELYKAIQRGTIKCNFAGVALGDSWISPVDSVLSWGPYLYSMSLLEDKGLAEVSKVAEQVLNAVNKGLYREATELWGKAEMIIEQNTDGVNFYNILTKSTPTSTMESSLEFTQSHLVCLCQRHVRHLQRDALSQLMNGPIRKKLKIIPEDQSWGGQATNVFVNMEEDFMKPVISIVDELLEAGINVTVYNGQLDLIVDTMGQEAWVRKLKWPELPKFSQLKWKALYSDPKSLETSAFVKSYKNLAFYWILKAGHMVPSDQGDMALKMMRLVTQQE
Kind of assay: SILAC RP-ABPP. It counts as cell-based. Particulars: SILAC H/L. On the procedure: as §1, §2, §3, §4

In the case of `C#CCNN.Cl` [probe 1, prop-2-yn-1-ylhydrazine hydrochloride], the enrichment ratioavg worked out at 8 in assay [1] (probe 1 3 mM 0.5 h vs probe 3) and 5 in assay [2] (probe 1 3 mM 0.5 h vs probe 3, HEK293T). The competition ratioavg turned out to be 3 in assay [1] (probe 1 vs probe 1+10x probe 3) and 2 in assay [2] (probe 1 vs probe 1+10x probe 3, HEK293T).

In the case of `C#CCCNC(=O)c1ccc(NN)cc1.Cl` [probe 2, N-(but-3-yn-1-yl)-4-hydrazinylbenzamide hydrochloride], the enrichment ratioavg was found to be 8 in assay [1] (probe 2 1 mM 0.5 h vs probe 4) and 19 in assay [2] (probe 2 1 mM 0.5 h vs probe 4, MDA-MB-231). Moreover, the competition ratioavg in assay [1] (probe 2 vs probe 2+10x probe 4) is reported as 2; in assay [2] (probe 2 vs probe 2+10x probe 4, MDA-MB-231), 4.
